In patent publication US20070088043A1, “Novel HDAC inhibitors” (ORCHID RESEARCH LABORATORIES LIMITED., priority 2005, published 2007):

Tests used:
NCIH 460 cells = assay: Anti-cancer screen (MTT), NCIH460; format: cell-based; settings: Homo sapiens, NCI-H460, NCIH460 cells, 48 hours, MTT; for GI50: concentration to decrease % growth by 50%; for IC100: concentration to decrease % growth by 100%, read-out: NCIH460 TGI; for LC50: concentration to decrease % growth by 150%
Method in brief: (§1)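 HCT116, NCIH460 and U251 cells (5000/well, DMEM + 10% FBS) seeded 24 h, then treated 48 h in triplicate at 0.01, 0.1, 1, 10, 100 μM; time-zero plate kept. MTT 3 h, formazan in DMSO read at 570 nm; GI50, TGI, LC50 derived.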

HCT 116 cells = assay: Anti-cancer screen (MTT), HCT116; format: cell-based; settings: Homo sapiens, HCT-116, HCT116 cells, 48 hours, MTT; for GI50: concentration to decrease % growth by 50%; for IC100: concentration to decrease % growth by 100%, read-out: HCT116 TGI; for LC50: concentration to decrease % growth by 150%
Method in brief: as §1

MDAMB231/U251 = assay: Anti-cancer screen (MTT), MDAMB231/U251; format: cell-based; settings: MDAMB231/U251 cells, 48 hours; for GI50: concentration to decrease % growth by 50%; for IC100: concentration to decrease % growth by 100%, read-out: MDAMB231/U251 TGI; for LC50: concentration to decrease % growth by 150%
Method in brief: as §1

[1] = system: NCIH460, HCT116, MDAMB231/U251; assay: Anti-cancer screen, mean GI50 over the cell lines; format: cell-based; settings: in µM
Method in brief: as §1

[2] = system: HDAC (Mouse Liver Extract); assay: Histone Deacetylase (HDAC) Inhibition Assay using Boc-Lys (Ac)-AMC Substrate; format: biochemical; settings: mouse liver enzyme, NA = No Activity; for HDAC Inhibition 1 μM / HDAC Inhibition 10 μM: in % (unit assumed)
Method in brief: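 Mouse liver extract was the HDAC source. It was preincubated with inhibitor for 5 min at 30° C, then incubated with Boc-Lys(Ac)-AMC substrate for 30 min at 30° C. Trypsin stop solution was added for a 20–30 min development step, and released AMC was read by fluorescence (ex 360/365, em 440/460 nm) with blank subtraction.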

Compound	GI50 (NCIH 460 cells) [µM]	IC100 (NCIH 460 cells) [µM]	LC50 (NCIH 460 cells) [µM]	GI50 (HCT 116 cells) [µM]	IC100 (HCT 116 cells) [µM]	LC50 (HCT 116 cells) [µM]	GI50 (MDAMB231/U251) [µM]	IC100 (MDAMB231/U251) [µM]	LC50 (MDAMB231/U251) [µM]	Mean GI50 [1]	HDAC Inhibition 1 μM [2]	HDAC Inhibition 10 μM [2]	IC50 [2] [µM]
N[C@H](CO)C(=O)NCCCCCC(=O)N1CCN(CC(=O)Nc2nc3ccccc3s2)CC1 [Example 44]	> 100	> 100	> 100	> 100	> 100	> 100	> 100	> 100	> 100	>100	5.45	1.79	–
CC(=O)SCCCCC(=O)N1CCN(CC(=O)Nc2nc3ccc(C)cc3s2)CC1 [Example 11, 2-[4-(5-Thioacetylpentanoyl)piperazin-1-yl]-N-(6-methyl-1,3-benzothiazol-2-yl)acetamide]	0.3	0.9	8	5	40	> 100	1	8	> 100	2.10	31.75	65.63	6.5
CC(=O)SCCCCCC(=O)N1CCN(CC(=O)Nc2nc3ccccc3s2)CC1 [Example 6, 2-[4-(6-Thioacetylhexanoyl)piperazin-1-yl]-N-(1,3-benzothiazol-2-yl)acetamide]	0.8	53	> 100	4.5	42	> 100	0.01	0.4	> 100	2.00	63.40	83.30	0.062
Cc1ccc2nc(NC(=O)CN3CCN(C(=O)CCCCCCC(=O)NO)CC3)sc2c1 [Example 35, 8-{4-[2-(6-Methyl-1,3-benzothiazol-2-ylamino)-2-oxoethyl]piperazin-1-yl}-N-hydroxy-8-oxo octanamide]	56	100	> 100	8	40	92	5	45	> 100	23	68.3	96.93	–
O=C(CCCCCCC(=O)N1CCN(CC(=O)Nc2nc3ccccc3s2)CC1)NO [Example 29, 8-{4-[2-(1,3-Benzothiazol-2-ylamino)-2-oxoethyl]piperazin-1-yl}-N-hydroxy-8-oxo octanamide]	0.8	93	> 100	30	> 100	> 100	11	55	95	13.9	61.41	97.00	0.76
